Measurements: patent US5434186A, “Carboxylic acid leukotriene B4 antagonists” (Hoffmann-La Roche Inc., priority 1993, dated 1995)
Read-outs that look alike come from different tables or passages of the source.

Key:
[1] = tested on: LTB4 -induced bronchoconstriction; assay: Guinea Pig Bronchoconstriction In Vivo (LTB4-induced); design: species or system guinea pig (Hartley strain); conditions: Cavia porcellus, po, read-out: ID50 (mg/kg), p.o., LTB4-induced bronchoconstriction
[2] = tested on: LTB4 -induced bronchoconstriction; assay: as above; design: species or system guinea pig (Hartley strain); conditions: Cavia porcellus, iv, i.v. five minutes prior to LTB4 (1 μg/kg i.v.), read-out: ID50 (mg/kg), i.v., LTB4-induced bronchoconstriction
Procedure: Male guinea pigs (Hartley strain) weighing 300 to 500 g are anesthetized with urethane (2 g/kg) intraperitoneally and a polyethylene cannula is inserted into the jugular vein for drug administration. Tracheal pressure is recorded from a cannula inserted into the trachea and connected to a Gould P23ID pressure transducer. After surgical preparation of the animals, a period of time is allowed for pulmonary functions to stabilize. The test compound is administered intravenously five minutes prior to leukotriene B4 administration according to the following protocol: Animals are paralyzed with succinylcholine (1.2 mg/kg i.v.) and mechanically respirated (Harvard rodent respirator) at 40 breaths/minute and 2.5 cc tidal volume. Propranolol (0.1 mg/kg) is then administered intravenously one minute prior to leukotriene B4 administration. Animals are then challenged with an intermediate constrictory dose of leukotriene B4 (1 μg/kg) delivered intravenously.
The change (cm H2 O) between pre and peak ventilatory pressure readings is averaged for five control and five drug treated animals. The percent inhibition is calculated from the formula:
((Control-Drug Treated)/Control)×100
When representative compounds of formula I of the invention were utilized as the test compounds the following results were obtained: […]

LTB4 Receptor = molecular target: T1, LTB4 Receptor (Homo sapiens, UniProt Q15722); assay: LTB4 Receptor Binding Assay (inhibition of 3H-LTB4 binding, human neutrophils); conditions: 0.5 nM 3H-LTB4, 45 minutes on ice, isolated human neutrophils
T1 construct: Isolated human neutrophils in Gey's salt solution; endogenous in cells; host or cells: human neutrophils isolated from blood (90-95% neutrophils)
T1 sequence (Q15722 whole entry): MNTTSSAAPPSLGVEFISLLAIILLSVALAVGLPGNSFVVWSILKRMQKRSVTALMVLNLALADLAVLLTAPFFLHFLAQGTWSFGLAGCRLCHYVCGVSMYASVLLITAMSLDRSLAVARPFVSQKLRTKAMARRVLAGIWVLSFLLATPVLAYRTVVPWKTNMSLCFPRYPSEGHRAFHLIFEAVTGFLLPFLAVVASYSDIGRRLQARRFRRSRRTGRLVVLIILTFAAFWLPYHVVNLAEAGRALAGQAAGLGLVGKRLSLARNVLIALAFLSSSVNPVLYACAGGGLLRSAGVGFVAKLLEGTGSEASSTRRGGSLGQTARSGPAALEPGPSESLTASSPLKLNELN
Procedure: Binding assays can be performed in microtiter wells. Isolated human neutrophils in Gey's salt solution are incubated on ice for 45 minutes with 0.5 nM ^3 H-LTB4 in the presence or absence of test compounds. Assays are terminated by adding 12 ml ice cold 50 mM Tris (pH 7.4) followed by rapid filtration under vacuum through GF/C filters. Radioactivity is determined by scintillation counting. Non specific binding is defined as the binding not displaced by 100 fold excess of unlabelled LTB4. Specific binding is defined as the difference between total binding and non-specific binding. Non linear analysis of the binding data is performed using LIGAND (Munson and Rodbard, 1980). Ki (Inhibition Constant) values were determined using the Cheng-Prusoff relationship (Cheng and Prusoff, 1973).
(§1) Human neutrophils are prepared from citrated or heparinized blood. The blood was diluted 1:1 with Hank's balanced salt solution (HBSS) minus calcium and magnesium and underlayed with 10 ml lymphocyte separation medium (Organon Teknika), followed by centrifugation at 500× g for 30 min., at room temperature. Supernatants are removed down to the red blood cell pellet. HBSS minus calcium and magnesium are added to give 25 ml. To this are added 25 ml 6% dextran in 0.85% NaCl. Samples are mixed and allowed to stand 20 min at room temperature. Supernatants are removed and centrifuged at 500× g for 5 min at 4° C. Pellets are resuspended with 20 ml 0.2% saline for 20 sec followed by the addition of 20 ml 1.6% saline. Samples are centrifuged at 500× g for 5 min at 4° C. The lysis is repeated and the cells (90-95% neutrophils) are resuspended at 2× 10^6 cell/ml in GEY's salt solution.

[3] = tested on: LTB4 mediated calcium fluxes in human neutrophils; assay: Calcium Flux Assay (inhibition of LTB4 mediated calcium fluxes in human neutrophils); assay type: cell-based; conditions: Neutrophil; Fura2 labelled human neutrophils, 2.4 nM LTB4
Procedure: as §1
LTB4 induced changes in intracellular calcium concentration are measured using Fura2 labelled human neutrophils. Cells at a concentration of 2-5×10^6 /ml are labelled with 5 μM Fura2 for 30 minutes in Hank's balanced salt solution without calcium and magnesium. The cells are washed and resuspended at a final concentration of 1-2×10^7 cells/ml in Gey's solution. Calcium fluxes are initiated by the addition of 2.4 nM LTB4. Test compounds at appropriate concentrations are added to the cells just prior to the addition of LTB4. […] Fluorescence measurements are made in a Perkin Elmer model LS-5B spectrofluorimeter at a temperature setting of 37° C. Calcium concentrations are determined using the ratio method (ratio of cell fluorescence to media fluorescence).
When representative compounds of formula I of the invention were tested, the results set forth in Table H and expressed as inhibition of LTB4 mediated calcium fluxes in human neutrophils, were obtained.

Row | Compound | ED50 [1] | ED50 [2] | Ki (LTB4 Receptor) | IC50 [3]
1 | CCCc1c(OCCCCCOc2ccc(CCCCC(=O)O)cc2CCC(=O)O)ccc2c1OCCC2=O [Example 215, 3-(2-Carboxyethyl)-4-[[5-[(3,4-dihydro-4-oxo-8-propyl-2H-1-benzopyran-7-yl)oxy]pentyl]oxy]benzenepentanoic Acid] | 4.65 mg/kg | 0.24 mg/kg | 3 nM | –
2 | CCCc1c(OCCCCOc2ccc(C(=O)c3cccc(C(=O)O)c3)cc2CCC(=O)O)ccc2c1OCCC2=O [Example 24, 5-[(3-Carboxyphenyl)carbonyl]-2-[4-[(3,4-dihydro-4-oxo-8-propyl-2H-1-benzopyran-7-yl)oxy]butoxy]benzenepropanoic Acid] | – | – | 15 nM | 11 nM
3 | O=C(O)CCc1ccccc1OCCCCCOc1ccc2c(c1Cc1ccccc1)OCCC2=O [Example 73, 2-[5-[[3,4-Dihydro-4-oxo-8-(phenylmethyl)-2H-1-benzopyran-7-yl]oxy]pentyloxy]benzenepropanoic Acid] | > 10 mg/kg | 0.13 mg/kg | 150 nM | –
4 | CCCc1c(OCCCCCOc2ccc3nc(CCC(=O)O)ccc3c2CCC(=O)O)ccc2c1OCCC2=O [Example 238, 6-[[5-[(3,4-Dihydro-4-oxo-8-propyl-2H-1-benzopyran-7-yl)oxy]pentyl]oxy]-2,5-quinolinedipropanoic Acid] | – | 1.24 mg/kg | 2 nM | –
5 | O=C(O)CCc1ccccc1OCCCCCOc1ccc2c(c1CCCc1ccccc1)OCCC2=O [Example 195, 2-[[5-[[3,4-Dihydro-4-oxo-8-(3-phenylpropyl)-2H-1-benzopyran-7-yl]oxy]pentyl]oxy]benzenepropanoic Acid] | 5.8 mg/kg | 0.04 mg/kg | 95 nM | –
6 | CCCc1c(OCCCCCCc2cccc(OCCCC(C)(C)C(=O)O)c2CCC(=O)O)ccc2c1OCCC2=O [Example 174, 2-[(4-Carboxy-4-methylpentyl)oxy]-6-[6-[(3,4-dihydro-4-oxo-8-propyl-2H-1-benzopyran-7-yl)oxy]hexyl]benzenepropanoic Acid] | 1.1 mg/kg | 0.22 mg/kg | 1 nM | –
7 | CCCc1c(OCCCCCCc2ccc(C(=O)CCCC(=O)O)cc2CCC(=O)O)ccc2c1OCCC2=O [Example 211, 3-(2-Carboxyethyl)-4-[6-[(3,4-dihydro-4-oxo-8-propyl-2H-1-benzopyran-7-yl)oxy]hexyl]-δ-oxobenzenepentanoic Acid] | – | 2.39 mg/kg | 0.8 nM | –
8 | CCCc1c(OCCCCCOc2ccc(Cl)cc2CCC(=O)O)ccc2c1OCCC2=O [Example 17, 5-Chloro-2-[5-[(3,4-dihydro-4-oxo-8-propyl-2H-1-benzopyran-7-yl)oxy]pentyloxy]benzenepropanoic Acid] | – | 2.02 mg/kg | 36 nM | 70 nM
9 | CCCc1c(OCCCCCOc2ccccc2CCCCC(=O)O)ccc2c1OCCC2=O [Example 147, 2-[5-[(3,4-Dihydro-4-oxo-8-propyl-2H-1-benzopyran-7-yl)oxy]pentyloxy]benzenepentanoic Acid] | – | 1.18 mg/kg | 200 nM | –
10 | CCCc1c(OCCCCCCOc2ccc(C(=O)c3cccc(C(=O)O)c3)cc2CCC(=O)O)ccc2c1OCCC2=O [Example 22, 5-[(3-Carboxyphenyl)carbonyl]-2-[6-[(3,4-dihydro-4-oxo-8-propyl-2H-1-benzopyran-7-yl)oxy]hexyloxy]benzenepropanoic Acid] | – | – | 3 nM | 1 nM
11 | CCCc1c(OCCCCCCc2ccccc2CCC(=O)O)ccc2c1OCCC2=O [Example 37, 2-[6-[(3,4-Dihydro-4-oxo-8-propyl-2H-1-benzopyran-7-yl)oxy]hexyl]benzenepropanoic Acid] | > 10 mg/kg | 0.45 mg/kg | – | –
12 | CCCc1c(OCCCCCOc2ccc(CCC(=O)O)cc2CCC(=O)O)ccc2c1OCCC2=O [Example 163, 4-[5-[(3,4-Dihydro-4-oxo-8-propyl-2H-1-benzopyran-7-yl)oxy]pentyloxy]-1,3-benzenedipropanoic Acid] | – | 3.11 mg/kg | 3 nM | –
13 | CCCc1c(OCCCCCCc2cccc(OCCCCC(=O)N(C)C)c2CCC(=O)N(C)C)ccc2c1OCCC2=O [Example 196, 2-[6-[(3,4-Dihydro-4-oxo-8-propyl-2H-1-benzopyran-7-yl)oxy]hexyl]-6-[[5-(dimethylamino)-5-oxopentyl]oxy]-N,N-dimethylbenzenepropanamide] | – | 0.62 mg/kg | 200 nM | –
14 | CCCc1c(OCCCCCOc2ccc(C(=O)c3ccc(C(=O)O)cc3)cc2CCC(=O)O)ccc2c1OCCC2=O [Example 85, 5-[(4-Carboxyphenyl)carbonyl]-2-[5-[(3,4-dihydro-4-oxo-8-propyl-2H-1-benzopyran-7-yl)oxy]pentyloxy]benzenepropanoic Acid] | – | 6.23 mg/kg | 3 nM | –
15 | CCCCCc1c(OCCCCCOc2ccccc2CCC(=O)O)ccc2c1OCCC2=O [Example 118, 2-[5-[(3,4-Dihydro-4-oxo-8-pentyl-2H-1-benzopyran-7-yl)oxy]pentyloxy]benzenepropanoic Acid] | > 10 mg/kg | 0.18 mg/kg | 607 nM | –
16 | CCCc1c(OCCCCCCc2ccc(CCCCC(=O)O)cc2CCC(=O)O)ccc2c1OCCC2=O [Example 219, 3-(2-Carboxyethyl)-4-[6-[(3,4-dihydro-4-oxo-8-propyl-2H-1-benzopyran-7-yl)oxy]hexyl]benzenepentanoic Acid] | > 10 mg/kg | 0.08 mg/kg | 1 nM | –
17 | CCCc1c(OCCCCCOc2cc3c(cc2C(C)=O)CCC(C(=O)O)O3)ccc2c1OCCC2=O (racemic) [Example 11, rac-6-Acetyl-7-[5-[(3,4-dihydro-4-oxo-8-propyl-2H-1-benzopyran-7-yl)oxy]pentyloxy]-3,4-dihydro-2H-1-benzopyran-2-carboxylic Acid] | – | – | – | 300 nM
18 | CCCc1c(OCCCCCOc2ccccc2CCCC(=O)O)ccc2c1OCCC2=O [Example 145, 2-[5-[(3,4-Dihydro-4-oxo-8-propyl-2H-1-benzopyran-7-yl)oxy]pentyloxy]benzenebutanoic Acid] | > 10 mg/kg | 0.56 mg/kg | 30 nM | –
19 | CCCc1c(OCCCCCOc2ccc3cc(OCC(=O)O)ccc3c2CCC(=O)O)ccc2c1OCCC2=O [Example 231, 6-(Carboxymethoxy)-2-[[5-[(3,4-dihydro-4-oxo-8-propyl-2H-1-benzopyran-7-yl)oxy]pentyl]oxy]-1-naphthalenepropanoic Acid] | – | 1.36 mg/kg | 0.8 nM | –
20 | CCCc1c(OCCCCCOc2ccc(C(=O)CCC(=O)O)cc2CCC(=O)O)ccc2c1OCCC2=O [Example 89, 3-(2-Carboxyethyl)-4-[5-[(3,4-dihydro-4-oxo-8-propyl-2H-1-benzopyran-7-yl)oxy]pentyloxy]-γ-oxobenzenebutanoic Acid] | – | 4.33 mg/kg | 4 nM | –
21 | O=C(O)CCCCCOc1cccc(CCCCCCOc2ccc3c(c2CCCc2ccccc2)OCCC3=O)c1CCC(=O)O [Example 200, 2-[(5-Carboxypentyl)oxy]-6-[6-[[3,4-dihydro-4-oxo-8-(3-phenylpropyl)-2H-1-benzopyran-7-yl]oxy]hexyl]benzenepropanoic Acid] | 0.16 mg/kg | 0.06 mg/kg | 1 nM | –
22 | CCCc1c(OCCCCCOc2ccc3ccc(OCC(=O)O)cc3c2CCC(=O)O)ccc2c1OCCC2=O [Example 226, 7-(Carboxymethoxy)-2-[[5-[(3,4-dihydro-4-oxo-8-propyl-2H-1-benzopyran-7-yl)oxy]pentyl]oxy]-1-naphthalenepropanoic Acid] | – | 4.4 mg/kg | 1 nM | –
